Assay: xn = mol fraction of the nth substance listed
Details: Liquid, Vibrating tube method

CN(C)C=O [dimethylformamide] + O=C=O
Details | mass density [kg/m3]
323.07 K, 21005 kPa, x2 = 0.6235 | 955.83
323.07 K, 22029 kPa, x2 = 0.6235 | 957.78
323.07 K, 23012 kPa, x2 = 0.6235 | 959.63
323.07 K, 24020 kPa, x2 = 0.6235 | 961.47
323.07 K, 24979 kPa, x2 = 0.6235 | 963.24
323.08 K, 11047 kPa, x2 = 0.8091 | 888.99
323.08 K, 12004 kPa, x2 = 0.8091 | 893.47
323.08 K, 13042 kPa, x2 = 0.8091 | 898.2
323.08 K, 14006 kPa, x2 = 0.8091 | 902.33
323.08 K, 15005 kPa, x2 = 0.8091 | 906.31
323.08 K, 16016 kPa, x2 = 0.8091 | 910.13
323.08 K, 16989 kPa, x2 = 0.8091 | 913.66
323.08 K, 18023 kPa, x2 = 0.8091 | 917.28
323.08 K, 18997 kPa, x2 = 0.8091 | 920.57
323.08 K, 20018 kPa, x2 = 0.8091 | 923.89
323.08 K, 21002 kPa, x2 = 0.8091 | 927.01
323.08 K, 22041 kPa, x2 = 0.8091 | 930.23
323.08 K, 22980 kPa, x2 = 0.8091 | 933.13
323.08 K, 23989 kPa, x2 = 0.8091 | 936
323.08 K, 25049 kPa, x2 = 0.8091 | 939.12
323.09 K, 7005 kPa, x2 = 0.4268 | 942.62
323.09 K, 7062 kPa, x2 = 0.4461 | 942.94
323.09 K, 7958 kPa, x2 = 0.4461 | 944.11
323.09 K, 8007 kPa, x2 = 0.4268 | 943.86
323.09 K, 9005 kPa, x2 = 0.4268 | 944.97
323.09 K, 9022 kPa, x2 = 0.4461 | 945.39
323.09 K, 9996 kPa, x2 = 0.4268 | 946.2
323.09 K, 9998 kPa, x2 = 0.4461 | 946.6
323.09 K, 11005 kPa, x2 = 0.4461 | 947.83
323.09 K, 11020 kPa, x2 = 0.4268 | 947.43
323.09 K, 12000 kPa, x2 = 0.4268 | 948.52
323.09 K, 12017 kPa, x2 = 0.9311 | 797.65
323.09 K, 12039 kPa, x2 = 0.4461 | 949.09
323.09 K, 13002 kPa, x2 = 0.4461 | 950.23
323.09 K, 13010 kPa, x2 = 0.9311 | 810.33
323.09 K, 13035 kPa, x2 = 0.4268 | 949.74
323.09 K, 14007 kPa, x2 = 0.4268 | 950.83
323.09 K, 14007 kPa, x2 = 0.4461 | 951.42
323.09 K, 14016 kPa, x2 = 0.9311 | 821.48
323.09 K, 14996 kPa, x2 = 0.4461 | 952.54
323.09 K, 15005 kPa, x2 = 0.9311 | 831.25
323.09 K, 15007 kPa, x2 = 0.4268 | 951.95
323.09 K, 15987 kPa, x2 = 0.4268 | 952.99
323.09 K, 16001 kPa, x2 = 0.4461 | 953.67
323.09 K, 16036 kPa, x2 = 0.9311 | 840.41
323.09 K, 16984 kPa, x2 = 0.4268 | 954.11
323.09 K, 17004 kPa, x2 = 0.4461 | 954.83
323.09 K, 17025 kPa, x2 = 0.9311 | 848.46
323.09 K, 17998 kPa, x2 = 0.4268 | 955.17
323.09 K, 18000 kPa, x2 = 0.4461 | 955.98
323.09 K, 18021 kPa, x2 = 0.9311 | 855.96
323.09 K, 18994 kPa, x2 = 0.4461 | 957.05
323.09 K, 19034 kPa, x2 = 0.9311 | 863.06
323.09 K, 19040 kPa, x2 = 0.4268 | 956.31
323.09 K, 20010 kPa, x2 = 0.9311 | 869.5
323.09 K, 20031 kPa, x2 = 0.4461 | 958.19
323.09 K, 20050 kPa, x2 = 0.4268 | 957.38
323.09 K, 21020 kPa, x2 = 0.4461 | 959.24
323.09 K, 21029 kPa, x2 = 0.9311 | 875.82
323.09 K, 21048 kPa, x2 = 0.4268 | 958.44
323.09 K, 22009 kPa, x2 = 0.9311 | 881.6
323.09 K, 22029 kPa, x2 = 0.4461 | 960.34
323.09 K, 22041 kPa, x2 = 0.4268 | 959.46
323.09 K, 23008 kPa, x2 = 0.4461 | 961.38
323.09 K, 23037 kPa, x2 = 0.4268 | 960.49
323.09 K, 23050 kPa, x2 = 0.9311 | 887.36
323.09 K, 23995 kPa, x2 = 0.9311 | 892.39
323.09 K, 24019 kPa, x2 = 0.4461 | 962.44
323.09 K, 24061 kPa, x2 = 0.4268 | 961.52
323.09 K, 25007 kPa, x2 = 0.4461 | 963.48
323.09 K, 25036 kPa, x2 = 0.4268 | 962.52
323.09 K, 25056 kPa, x2 = 0.9311 | 897.78
323.1 K, 7005 kPa, x2 = 0.4502 | 942.87
323.1 K, 7058 kPa, x2 = 0.4068 | 942.59
323.1 K, 8007 kPa, x2 = 0.4068 | 943.65
323.1 K, 8009 kPa, x2 = 0.4502 | 944.1
323.1 K, 9003 kPa, x2 = 0.4502 | 945.32
323.1 K, 9034 kPa, x2 = 0.4068 | 944.82
323.1 K, 10001 kPa, x2 = 0.4068 | 945.91
323.1 K, 10005 kPa, x2 = 0.4502 | 946.57
323.1 K, 11002 kPa, x2 = 0.4502 | 947.78
323.1 K, 11013 kPa, x2 = 0.4068 | 947.04
323.1 K, 12000 kPa, x2 = 0.4068 | 948.11

From the NIST ThermoML archive (doi:10.1021/je050050p)
